From the supplement of paper PMC10627819

Key:
[1] = system: S. pneumoniae D39V; experiment: fitness (endpoint OD595 vs no drug) (fraction); higher = more growth
How it was run: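 Fitness was measured as bacterial growth in 384-well plates inoculated at OD595 0.01 (30 µl, or 55 µl for S. pneumoniae). Media were TSB, LB Lennox or CY, at 37 °C. OD595 was read every 30 min for 14 h and background-subtracted against the first reading. Fitness is OD595 at the transition into stationary phase divided by the robust mean of no-drug control wells, capped at 1.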

[2] = system: B. subtilis 168; experiment: Bliss interaction score (quartile over a dose matrix) (fitness difference); higher = more antagonism (negative = synergy)
How it was run: (§1)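 The Bliss score is observed fitness minus expected fitness, where the expected value is the product of single-drug fitness values inferred from combination data. Fitness is OD595 at entry into stationary phase normalised to the plate's robust no-drug mean and capped at 1. Scores are reported as quartiles spanning technical, biological and donor/recipient replicates.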

[3] = system: S. aureus DSM 20231; experiment: as above
How it was run: as §1

[4] = system: S. aureus Newman; experiment: as above
How it was run: as §1

[5] = system: S. pneumoniae D39V; experiment: as above
How it was run: as §1
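Throughout, for Bliss interaction score (quartile over a dose matrix): first quartile when negative (synergy) and third quartile when positive (antagonism).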
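Throughout, for fitness (endpoint OD595 vs no drug): OD595 on entry to stationary phase over no-drug wells; at most 1.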

CC[C@H]1OC(=O)[C@H](C)[C@@H](O[C@H]2C[C@@](C)(OC)[C@@H](O)[C@H](C)O2)[C@H](C)[C@@H](O[C@@H]2O[C@H](C)C[C@H](N(C)C)[C@H]2O)[C@](C)(OC)C[C@@H](C)C(=O)[C@H](C)[C@@H](O)[C@]1(C)O [Clarithromycin] + CN(C)c1cc(NC(=O)CNC(C)(C)C)c(O)c2c1C[C@H]1C[C@H]3[C@H](N(C)C)C(O)=C(C(N)=O)C(=O)[C@@]3(O)C(O)=C1C2=O [Tigecycline]
fitness, [1], one replicate
Settings | first compound 0.007812 µg/mL | first compound 0.01562 µg/mL | first compound 0.03125 µg/mL
partner 0.65 µg/mL | 0.848 | 0.757 | 0.646
partner 1.3 µg/mL | 0.813 | 0.749 | 0.633
partner 2.6 µg/mL | 0.815 | 0.747 | 0.619

fitness, [1]
Settings | first compound 0.0625 µg/mL | first compound 0.07 µg/mL | first compound 0.125 µg/mL | first compound 0.14 µg/mL | first compound 0.25 µg/mL | first compound 0.28 µg/mL
partner 0.325 µg/mL | – | 0.111 | – | 0.071 | – | 0.0539
partner 0.65 µg/mL | 0.589 | 0.0865 | 0.253 | 0.0638 | 0.113 | 0.0627
partner 1.3 µg/mL | 0.506 | 0.0861 | 0.213 | 0.0727 | 0.103 | 0.068
partner 2.6 µg/mL | 0.494 | – | 0.198 | – | 0.119 | –

Settings | Bliss interaction score
[2] | 0.0852
[3] | 0.0343
[4] | -0.0401
[5] | -0.0848

CC[C@H]1OC(=O)[C@H](C)[C@@H](O[C@H]2C[C@@](C)(OC)[C@@H](O)[C@H](C)O2)[C@H](C)[C@@H](O[C@@H]2O[C@H](C)C[C@H](N(C)C)[C@H]2O)[C@](C)(OC)C[C@@H](C)C(=O)[C@H](C)[C@@H](O)[C@]1(C)O [Clarithromycin] + CN(N=O)C(=O)N[C@@H](C=O)[C@@H](O)[C@H](O)[C@H](O)CO [Streptozotocin]
fitness, [1], one replicate
Settings | first compound 0.007812 µg/mL | first compound 0.01562 µg/mL | first compound 0.03125 µg/mL | first compound 0.0625 µg/mL | first compound 0.125 µg/mL | first compound 0.25 µg/mL
partner 1.2 µg/mL | 0.873 | 0.804 | 0.673 | 0.674 | 0.263 | 0.0915
partner 2.4 µg/mL | 0.877 | 0.815 | 0.672 | 0.713 | 0.32 | 0.134
partner 4.8 µg/mL | 0.87 | 0.802 | 0.661 | 0.537 | 0.0252 | 0

fitness, [1]
Settings | first compound 0.07 µg/mL | first compound 0.14 µg/mL | first compound 0.28 µg/mL
partner 1.2 µg/mL | 0.115 | 0.0648 | 0.031
partner 2.4 µg/mL | 0.119 | 0.0981 | 0.0724
partner 4.8 µg/mL | 0.0916 | 0.0774 | 0.033

Settings | Bliss interaction score
[2] | 0.0503
[3] | 0.0361
[4] | -0.0313
[5] | 0.0525

CC[C@H]1OC(=O)[C@H](C)[C@@H](O[C@H]2C[C@@](C)(OC)[C@@H](O)[C@H](C)O2)[C@H](C)[C@@H](O[C@@H]2O[C@H](C)C[C@H](N(C)C)[C@H]2O)[C@](C)(OC)C[C@@H](C)C(=O)[C@H](C)[C@@H](O)[C@]1(C)O [Clarithromycin] + CN[C@@H]1[C@H](O)[C@H](NC)[C@H]2O[C@@]3(O)C(=O)C[C@@H](C)O[C@H]3O[C@@H]2[C@H]1O [Spectinomycin]
fitness, [1], one replicate
Settings | first compound 0.007812 µg/mL | first compound 0.01562 µg/mL | first compound 0.03125 µg/mL | first compound 0.0625 µg/mL | first compound 0.125 µg/mL | first compound 0.25 µg/mL
partner 4 µg/mL | 0.836 | 0.755 | 0.669 | 0.725 | 0.326 | 0.156
partner 8 µg/mL | 0.741 | 0.72 | 0.658 | 0.676 | 0.221 | 0.114
partner 16 µg/mL | 0.644 | 0.664 | 0.528 | – | – | –

fitness, [1]
Settings | first compound 0.07 µg/mL | first compound 0.14 µg/mL | first compound 0.28 µg/mL
partner 4 µg/mL | 0.138 | 0.0851 | 0.0564
partner 8 µg/mL | 0.138 | 0.0752 | 0.0774
partner 16 µg/mL | 0.114 | 0.0949 | 0.0947

Settings | Bliss interaction score
[2] | -0.0725
[3] | -0.142
[4] | -0.181
[5] | -0.0344

CC[C@H]1OC(=O)[C@H](C)[C@@H](O[C@H]2C[C@@](C)(OC)[C@@H](O)[C@H](C)O2)[C@H](C)[C@@H](O[C@@H]2O[C@H](C)C[C@H](N(C)C)[C@H]2O)[C@](C)(OC)C[C@@H](C)C(=O)[C@H](C)[C@@H](O)[C@]1(C)O [Clarithromycin] + CN[C@@H]1[C@H](O[C@H]2[C@H](O[C@H]3[C@H](O)[C@@H](O)[C@H](N=C(N)N)[C@@H](O)[C@@H]3N=C(N)N)O[C@@H](C)[C@]2(O)C=O)O[C@@H](CO)[C@H](O)[C@H]1O [Streptomycin]
fitness, [1], one replicate
Settings | first compound 0.007812 µg/mL | first compound 0.01562 µg/mL | first compound 0.03125 µg/mL | first compound 0.0625 µg/mL | first compound 0.125 µg/mL | first compound 0.25 µg/mL
partner 2 µg/mL | 0.857 | 0.802 | 0.663 | 0.68 | 0.318 | 0.129
partner 4 µg/mL | 0.866 | 0.799 | 0.694 | – | – | –
partner 8 µg/mL | 0.845 | 0.793 | 0.651 | – | – | –
partner 16 µg/mL | – | – | – | 0.478 | 0.184 | 0.0864

fitness, [1]
Settings | first compound 0.0625 µg/mL | first compound 0.07 µg/mL | first compound 0.125 µg/mL | first compound 0.14 µg/mL | first compound 0.25 µg/mL | first compound 0.28 µg/mL
partner 2 µg/mL | – | 0.117 | – | 0.0741 | – | 0.0426
partner 4 µg/mL | 0.623 | 0.103 | 0.3 | 0.0646 | 0.142 | 0.0455
partner 8 µg/mL | 0.594 | 0.154 | 0.312 | 0.0691 | 0.107 | 0.0723

Settings | Bliss interaction score
[2] | 0.0553
[3] | 0.0696
[4] | -0.0521
[5] | -0.0538

CC[C@H]1OC(=O)[C@H](C)[C@@H](O[C@H]2C[C@@](C)(OC)[C@@H](O)[C@H](C)O2)[C@H](C)[C@@H](O[C@@H]2O[C@H](C)C[C@H](N(C)C)[C@H]2O)[C@](C)(OC)C[C@@H](C)C(=O)[C@H](C)[C@@H](O)[C@]1(C)O [Clarithromycin] + CN[C@H](CC(C)C)C(=O)N[C@H]1C(=O)N[C@@H](CC(N)=O)C(=O)N[C@H]2C(=O)N[C@H]3C(=O)N[C@H](C(=O)N[C@H](C(=O)O)c4cc(O)cc(O)c4-c4cc3ccc4O)[C@H](O)c3ccc(c(Cl)c3)Oc3cc2cc(c3O[C@@H]2O[C@H](CO)[C@@H](O)[C@H](O)[C@H]2O[C@H]2C[C@](C)(N)[C@H](O)[C@H](C)O2)Oc2ccc(cc2Cl)[C@H]1O [Vancomycin]
fitness, [1], one replicate
Settings | first compound 0.007812 µg/mL | first compound 0.01562 µg/mL | first compound 0.03125 µg/mL
partner 0.125 µg/mL | 0.835 | 0.803 | 0.699
partner 0.25 µg/mL | 0.333 | 0.0993 | 0.126
partner 0.5 µg/mL | 0.0664 | 0.0774 | 0.0781

fitness, [1]
Settings | first compound 0.0625 µg/mL | first compound 0.07 µg/mL | first compound 0.125 µg/mL | first compound 0.14 µg/mL | first compound 0.25 µg/mL | first compound 0.28 µg/mL
partner 0.03125 µg/mL | 0.652 | – | 0.381 | – | 0.149 | –
partner 0.0625 µg/mL | 0.577 | – | 0.321 | – | 0.116 | –
partner 0.125 µg/mL | – | 0.101 | 0.281 | 0.0727 | 0.106 | 0.0814
partner 0.25 µg/mL | – | 0.0516 | – | 0.0525 | – | 0.0738
partner 0.5 µg/mL | – | 0.0749 | – | 0.0887 | – | 0.0893

Settings | Bliss interaction score
[2] | 0.038
[3] | 0.054
[4] | 0.0579
[5] | -0.0529

CC[C@H]1OC(=O)[C@H](C)[C@@H](O[C@H]2C[C@@](C)(OC)[C@@H](O)[C@H](C)O2)[C@H](C)[C@@H](O[C@@H]2O[C@H](C)C[C@H](N(C)C)[C@H]2O)[C@](C)(OC)C[C@@H](C)C(=O)[C@H](C)[C@@H](O)[C@]1(C)O [Clarithromycin] + CO[C@H]1/C=C/O[C@@]2(C)Oc3c(C)c(O)c4c(O)c(c(/C=N/N5CCN(C)CC5)c(O)c4c3C2=O)NC(=O)/C(C)=C\C=C\[C@H](C)[C@H](O)[C@@H](C)[C@@H](O)[C@@H](C)[C@H](OC(C)=O)[C@@H]1C [Rifampicin]
fitness, [1], one replicate
Settings | first compound 0.007812 µg/mL | first compound 0.01562 µg/mL | first compound 0.03125 µg/mL | first compound 0.0625 µg/mL | first compound 0.125 µg/mL | first compound 0.25 µg/mL
partner 0.025 µg/mL | – | – | – | 0.395 | 0.245 | 0.155
partner 0.05 µg/mL | 0.647 | 0.466 | 0.293 | – | – | –
partner 0.1 µg/mL | 0.262 | 0.213 | 0.219 | – | – | –
partner 0.2 µg/mL | 0.122 | 0.15 | 0.196 | 0 | 0 | 0

fitness, [1]
Settings | first compound 0.0625 µg/mL | first compound 0.07 µg/mL | first compound 0.125 µg/mL | first compound 0.14 µg/mL | first compound 0.25 µg/mL | first compound 0.28 µg/mL
partner 0.025 µg/mL | – | 0.161 | – | 0.109 | – | 0.121
partner 0.05 µg/mL | 0.362 | 0.17 | 0.215 | 0.164 | 0.108 | 0.102
partner 0.1 µg/mL | 0.177 | 0.118 | 0.119 | 0.0954 | 0.114 | 0.138

Settings | Bliss interaction score
[2] | 0.0788
[3] | 0.0272
[4] | 0.0434
[5] | 0.0654
